Experimental findings from patent publication US10865216B2, “Tricyclic Gyrase inhibitors” (MERCK SHARP & DOHME CORP., priority 2012, dated 2020) are described below.

Values after ≈ are worked out from the molar mass of the structure shown. Like-named read-outs stand apart in the source and are kept apart here. Some results are limits rather than exact numbers.

The subject of experiment [1] is E. coli ATCC 25922. As to the kind of experiment: MIC, E. coli ATCC 25922. Particulars: for MIC: Escherichia coli. Type of experiment: cell-based.
Experiment [2] relates to S. aureus ATCC 13709. As to the kind of experiment: MIC, S. aureus ATCC 13709. Type of experiment: cell-based. The conditions noted are these: for MIC: Staphylococcus aureus.
Setting [3] is: ATCC25922, E. coli, Alamar Blue read after overnight incubation at 35° C., read-out: MIC Ec.
Setting [4] is: ATCC13709, S. aureus, Alamar Blue read after overnight incubation at 35° C., read-out: MIC Sa.
The mark [5] stands for this setting: E. coli, Alamar Blue read after overnight incubation at 35° C.
The mark [6] stands for this setting: S. aureus, Alamar Blue read after overnight incubation at 35° C.

As usually defined, the MIC is the lowest concentration found to suppress growth. Turning to `COc1cccc2c1[nH]c1nc(Sc3cnc4cccnc4c3)nc(N3CC4C(N)C4C3)c12` (centres unmarked) [Compound 1.75], the results for the MIC in experiment [1] (setting [3]) and in experiment [2] (setting [4]) were above 64 mg/L and at most 0.5 mg/L, respectively.

As for `CNc1cc(F)cc2c1[nH]c1nc(Oc3cnc(C4CC4)nc3)nc(N3CC4C(N)C4C3)c12` (centres unmarked) [Compound 4.241], the “MIC Ec” value in experiment [1] (setting [5]) was at most 0.5 mg/L. Further, the “MIC Sa” value in experiment [2] (setting [6]) is at most 0.5 mg/L.

Regarding `CNc1cc(F)cc2c1[nH]c1nc(Cc3cnc(C)nc3)nc(N3CC4C(N)C4C3)c12` (centres unmarked) [drawing 1737], in experiment [1] (Table 11, L = CH2, EC8 not defined), the EC8 MIC was 0.25 mg/L. Besides, the SA MIC in experiment [2] (Table 11, compounds wherein L = CH2) was at most 0.5 mg/L.

In the case of `CNc1cc(F)cc2c1[nH]c1nc(Oc3cnc(CF)nc3)nc(N3C[C@H]4CC3C[C@H]4N)c12` [Compound 4.443], the MIC in experiment [1] (setting [3]) and in experiment [2] (setting [4]) was at most 0.5 mg/L each time.

`CNc1cc(F)cc2c1[nH]c1nc(Oc3cnc(C)nc3)nc(N3CC(N)C(C(F)(F)F)C3)c12` (centres unmarked) [drawing 1824]: the minimum inhibitory concentration (MIC) was above 16 mg/L in experiment [1] (ATCC25922, Table 16, new R4 substituents, EC8 not defined, read-out: EC8 MIC) and at most 0.5 mg/L in experiment [2] (ATCC13709, Table 16, new R4 substituents, read-out: SA MIC).

For the compound `CNc1cc(F)c(Cl)c2c1[nH]c1nc(Oc3cnc4ccnn4c3)nc(N3CC4(CC[C@@H]4N)C3)c12` [Compound 10.94], in experiment [1] (Table 18, Ec), the MIC Ec is at most 0.5 mg/L. Moreover, the MIC Sa in experiment [2] (Table 18, Sa) was at most 0.5 mg/L.

Regarding `CNc1cc(F)cc2c1[nH]c1nc(Oc3cnc4ccoc4c3)nc(N3CC4CC(N)C4C3)c12` (centres unmarked) [Compound 4.290], in experiment [1] (setting [5]), the “MIC Ec” value is at most 0.5 mg/L. Moreover, the “MIC Sa” value in experiment [2] (setting [6]) is at most 0.5 mg/L.

In the case of `CNc1cc(F)cc2c1[nH]c1nc(Oc3cnc(C(C)C#N)nc3)nc(N3C[C@H]4C[C@@H]3C[C@H]4N)c12` (some centres unmarked) [Compound 10.91], the MIC Ec in experiment [1] (Table 18, Ec) is above 16 mg/L. This compound also displayed an MIC Sa in experiment [2] (Table 18, Sa) of 4 mg/L (≈ 8.45 µM).

Regarding `CNc1cc(F)cc2c1[nH]c1nc(Oc3cnc(C)nc3)nc(N3CC(N)C(C(=O)NCC(C)O)C3)c12` (centres unmarked) [Compound 4.439], the MIC in experiment [1] (setting [3]) is above 16 mg/L; in experiment [2] (setting [4]), 8 mg/L (≈ 15.7 µM).

As for `CNc1cccc2c1[nH]c1nc(Sc3cnc4cccnc4c3)nc(N3C[C@H](N)C[C@@H]3CO)c12` [Compound 1.68], the MIC came out at 32 mg/L (≈ 67.7 µM) in experiment [1] (setting [3]) and 16 mg/L (≈ 33.9 µM) in experiment [2] (setting [4]).

Consider `COc1cccc2c1[nH]c1nc(Oc3cncnc3)nc(N3CC[C@@H](N)C3)c12` [Compound 2.10], for which the “MIC Ec” value in experiment [1] (setting [5]) worked out at 32 mg/L (≈ 84.8 µM). Besides, the “MIC Sa” value in experiment [2] (setting [6]) worked out at 2 mg/L (≈ 5.3 µM).

As to `CNc1cccc2c1[nH]c1nc(Oc3cncnc3)cc(-c3cn[nH]c3)c12` [Compound 3.9], the MIC amounted to 32 mg/L (≈ 89.5 µM) in experiment [1] (setting [3]) and 2 mg/L (≈ 5.6 µM) in experiment [2] (setting [4]).

As to `CCc1cc(F)cc2c1[nH]c1nc(Oc3cnc(C)nc3)nc(N3C[C@H]4C[C@@H]3C[C@H]4N)c12` [Compound 10.89], the MIC Ec in experiment [1] (Table 18, Ec) worked out at 2 mg/L (≈ 4.61 µM). In addition, the MIC Sa in experiment [2] (Table 18, Sa) is at most 0.5 mg/L.

As for `CNc1cccc2c1[nH]c1nc(Sc3cnc4cccnc4c3)nc(N3CC4CCCNC4C3)c12` (centres unmarked) [Compound 1.28], the MIC in experiment [1] (setting [3]) turned out to be 16 mg/L (≈ 33.2 µM); in experiment [2] (setting [4]) it was 4 mg/L (≈ 8.29 µM).

Turning to `CNc1cc(F)cc2c1[nH]c1nc(Oc3cncc(Cl)c3)nc(N3CC(N)C4(CC4)C3)c12` (centres unmarked) [Compound 4.273], the “MIC Ec” value in experiment [1] (setting [5]) is 2 mg/L (≈ 4.41 µM). In experiment [2] (setting [6]), the “MIC Sa” value was at most 0.5 mg/L.

`CNc1cc(F)cc2c1[nH]c1nc(NCc3cnc(C)nc3)nc(N3C[C@H]4C[C@@H]3C[C@H]4N)c12` [Compound 10.60] displayed an MIC Ec in experiment [1] (Table 18, Ec) of 16 mg/L (≈ 35.8 µM). The compound further came in with an MIC Sa in experiment [2] (Table 18, Sa) of 8 mg/L (≈ 17.9 µM).

As to `CNc1cccc2c1[nH]c1nc(Oc3cncnc3)cc(N3C[C@@H]4CNC[C@H]4C3)c12` [Compound 3.61], the values for the MIC in experiment [1] (setting [3]) and in experiment [2] (setting [4]) were 16 mg/L (≈ 39.9 µM) and 4 mg/L (≈ 9.96 µM), respectively.

Consider `CNc1cc(F)cc2c1[nH]c1nc(Oc3cncnc3)nc(N3CC4C(N)C4C3)c12` (centres unmarked) [Compound 4.010], for which, in experiment [1] (setting [5]), the “MIC Ec” value was at most 0.5 mg/L. In experiment [2] (setting [6]), the “MIC Sa” value was at most 0.5 mg/L.

Turning to `CNc1cc(F)cc2c1[nH]c1nc(Oc3cnc(C)nc3)nc(N3CC(N4CC(N)C4)C3)c12` [Compound 4.158], the “MIC Ec” value in experiment [1] (setting [5]) turned out to be 4 mg/L (≈ 8.9 µM). Moreover, the “MIC Sa” value in experiment [2] (setting [6]) was at most 0.5 mg/L.

Take `CNc1cc(F)cc2c1[nH]c1nc(Oc3cnc(C)nc3)nc(N3CCCC(C)(N)C3)c12` (centres unmarked) [Compound 4.088]: in experiment [1] (setting [5]), the “MIC Ec” value amounted to 1 mg/L (≈ 2.29 µM). In addition, the “MIC Sa” value in experiment [2] (setting [6]) was at most 0.5 mg/L.

In the case of `CNc1cc(F)cc2c1[nH]c1nc(Oc3cnc(CC(=O)N4CC(N(C)C)C4)nc3)nc(N3C[C@H](N)C4(CC4)C3)c12` [Compound 4.373], the “MIC Ec” value in experiment [1] (setting [5]) turned out to be 8 mg/L (≈ 14.3 µM). Further, the “MIC Sa” value in experiment [2] (setting [6]) came to 2 mg/L (≈ 3.57 µM).

With `CNc1ncc(Oc2nc(N3CC4C(N)C4C3)c3c(n2)[nH]c2c(NC)cc(F)cc23)cn1` (centres unmarked) [Compound 4.218], in experiment [1] (setting [5]), the “MIC Ec” value was at most 0.5 mg/L. Further, in experiment [2] (setting [6]), the “MIC Sa” value was at most 0.5 mg/L.

With `CNc1cc(F)cc2c1[nH]c1nc(Oc3cnc(C)nc3)nc(N3CC(C4(N)CC4)C3)c12` [Compound 4.080], in experiment [1] (setting [5]), the “MIC Ec” value came to 1 mg/L (≈ 2.3 µM). Moreover, in experiment [2] (setting [6]), the “MIC Sa” value is at most 0.5 mg/L.

As for `CNc1cc(F)c2c3c1[nH]c1nc(Oc4cnc(C)nc4)nc(c13)-c1ccccc1NC2`, the EC8 MIC in experiment [1] (Table 12, Z is C and connected to R4, EC8 not defined) is at most 0.5 mg/L. This compound returned an SA MIC in experiment [2] (Table 12, Z is C and connected to R4) of at most 0.5 mg/L.

As for `CNc1cc(F)cc2c1[nH]c1nc(Oc3ccc(C#N)nc3)nc(N3CC(N)C4(CC4)C3)c12` (centres unmarked) [Compound 4.329], the “MIC Ec” value in experiment [1] (setting [5]) is at most 0.5 mg/L. The “MIC Sa” value in experiment [2] (setting [6]) is at most 0.5 mg/L.
